From patent publication US20090081197A1 (Palatin Technologies, Inc., priority 2007, published 2009)

Key:
MC4-R [1] = target: T1, MC4-R (Homo sapiens, UniProt P32245); assay: cAMP agonist stimulation, high receptor density system (10 ng/mL doxycycline); settings: for Efficacy/Intrinsic Activity: 10 ng/mL doxycycline, high receptor density hMC4-R system, NDP-α-MSH maximal cAMP = 1.0
MC1-R [2] = target: T2, MC1-R (Mus musculus, UniProt Q01727); assay: Competitive inhibition assay using [I^125]-NDP-α-MSH, B-16 mouse melanoma cell membranes; assay type: binding; settings: for inhibition at 1 µM: 1 μM test compound, read-out: Inhibition at 1 μM (NDP-α-MSH) In Normal System, MC1-R; for Ki: read-out: Ki (nM) (NDP-α-MSH) In Normal System, MC1-R
T2 construct: B-16 mouse melanoma cells (containing MC1-R); endogenous in cells
How it was run: (§1)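 Tracer was 0.4 nM for MC3-R and MC5-R, 0.2 nM for MC4-R and 0.1 nM for MC1-R. Bound radioactivity was gamma-counted after filtration; values are triplicate means, with results below 0% reported as 0%.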

MC3-R [3] = target: T3, MC3-R (Homo sapiens, UniProt P41968); assay: Competitive inhibition assay using [I^125]-NDP-α-MSH, hMC3-R membranes; assay type: binding; design: expressed in transfected cells; settings: 1 μM test compound; read-out: Inhibition at 1 μM (NDP-α-MSH) In Normal System, MC3-R
How it was run: as §1

MC1-R [4] = target: T2, MC1-R; assay: cAMP functional activity assay in B-16 mouse melanoma cells; assay type: cell-based; settings: 1 μM concentration where stated
Description: (§2) General method for EC50 determination in functional activity assay. […] Data analysis and EC50 values were determined using nonlinear regression analysis with Prism Graph-Pad software.
(§3) Functional status. The agonist/antagonist status with respect to MC1-R, MC-3R, MC4-R and MC5-R of certain compounds of the invention was determined. Antagonistic activity was determined by measuring the inhibition of α-MSH-induced or NDP-α-MSH-induced cAMP levels following exposure to graded doses of compounds as in the preceding descriptions.

MC5-R [5] = target: T4, MC5-R (Homo sapiens, UniProt P33032); assay: cAMP functional activity assay in HEK-293 cells; assay type: cell-based; design: expressed in transfected cells; host or cells: HEK-293; settings: 1 μM concentration where stated
Description: as §2, §3

MC4-R [6] = target: T1, MC4-R; assay: Assay for neutral antagonist, Schild analysis (pA2) against NDP-α-MSH; assay type: cell-based; design: expressed in transfected cells; host or cells: HEK-293; settings: Schild analysis vs NDP-α-MSH; for Kb: read-out: pA2 value as antagonist at MC4-R in a normal system (converted)
Description: Assay for Neutral Antagonist. […] These studies were carried out in HEK-293 cells expressing the MC4-R receptor. Cells were incubated with the compounds in the presence of the agonist NDP-α-MSH and the extent of antagonism was measured by the decrease in the level of intracellular cAMP. Screening the compounds for antagonists was done at a single concentration of NDP-α-MSH (1.0 nM) over a compound concentration range of 0.5-5000 nM.
Experimental details were similar to the analysis for agonistic activity described above. Briefly, cells were pre-incubated for 30 minutes with the test compounds at concentrations between 0.5 nM and 5000 nM. The cells were then stimulated with NDP-α-MSH at a concentration of 1 nM for 1 hour. For Schild analysis, the interactions were studied using at least 3 concentrations of the compounds, separated by a log unit, over a full range of the agonist (0.005-5000 nM). cAMP levels was measured in the cell lysates after appropriate dilution. Nonlinear regression analysis with Prism Graph-Pad software was used for Schild analysis and to obtain EC50 values. pA2 values were derived from the Schild plot of the data.

MC4-R [7] = target: T1, MC4-R; assay: Competitive inhibition assay using [I^125]-NDP-α-MSH, hMC4-R membranes; assay type: binding; design: host or cells: TREx-293 (HEK-293 stably expressing Tet repressor); settings: 1 μM test compound; read-out: Inhibition at 1 μM (NDP-α-MSH) In Normal System, MC4-R
How it was run: as §1

MC4-R [8] = target: T1, MC4-R; assay: cAMP agonist stimulation, low receptor density system (0.1 ng/mL doxycycline); settings: for Efficacy/Intrinsic Activity: 0.1 ng/mL doxycycline, low receptor density hMC4-R system, NDP-α-MSH maximal cAMP = 1.0
[9] = IP (and IN) food intake, mice; assay type: in vivo; settings: mouse, IP, 4 hours
How it was run: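 Male Sprague-Dawley rats dosed IV (0.5-3, up to 10 mg/kg) or IP (0.5-10, up to 50 mg/kg); male C57BL/6 mice dosed IP. Change in food intake and body weight over 24 h post-dose versus 1-week vehicle baseline, with 48 and 72 h reversal checks.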

MC4-R [10] = target: T1, MC4-R; assay: cAMP functional activity assay in HEK-293 cells, normal system; assay type: cell-based; design: expressed in transfected cells; host or cells: HEK-293; settings: for functional status at MC4-R in cAMP assay: normal system, 1 μM concentration where stated; for intrinsic activity at MC4-R in a normal system: normal receptor density system, NDP-α-MSH = 1.0
MC5-R [11] = target: T4, MC5-R; assay: Competitive inhibition assay using [I^125]-NDP-α-MSH, hMC5-R membranes; assay type: binding; design: expressed in transfected cells; settings: 1 μM test compound; read-out: Inhibition at 1 μM (NDP-α-MSH) In Normal System, MC5-R
How it was run: as §1

[12] = ICV food intake and body weight change; assay type: in vivo; settings: rat, 1 nmol, 24 hours
How it was run: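 Rats fitted with intracerebroventricular cannulas and fed ad libitum got a single ICV dose of vehicle or compound (1-3 nmol). Food intake and body-weight change over the 24 h after dosing were compared with a 1-week vehicle baseline. Values at 48 h and 72 h were also recorded to follow return to baseline.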

MC3-R [13] = target: T3, MC3-R; assay: cAMP functional activity assay in HEK-293 cells; assay type: cell-based; design: expressed in transfected cells; host or cells: HEK-293; settings: 1 μM concentration where stated
Description: as §2, §3

[14] = Penile erection induction in male rats; assay type: in vivo; settings: rat
How it was run: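 Male Sprague-Dawley rats (200-250 g), groups of 4-8, dosed IV or ICV at various doses and observed individually for penile erections. Only statistically relevant increases over vehicle-control mean PEs count as induction; IV responses below 1.0 PEs/rat treated as equivocal, some retested ICV.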

[15] = IV and IP food intake and body weight change, rats; assay type: in vivo; settings: rat, IV, 10 mg/kg, 24 hours
Description: IV and IP food intake and body weight change. Change in food intake and body weight was evaluated for selected compounds. Male Sprague-Dawley rats or male C57BL/6 mice were utilized. Animals were individually housed in conventional plexiglass hanging cages and maintained on a controlled 12 hour on/off light cycle. Water and powdered (LabDiet, 5P00 Prolab RMH 3000) or pelleted (Harlan Teklad 2018 18% Protein Rodent Diet) food was provided ad libitum. For 1 week before treatment, 24-hour food intake and body weight change was recorded to assess a baseline for the group during vehicle treatment. The rats were dosed IV with vehicle or selected compounds (0.5-3 mg/kg, and in some cases up to 10 mg/Kg) or dosed intraperitoneally (IP) with vehicle or selected compounds (0.5-10 mg/kg, and in some cases up to 50 mg/kg). Mice were dosed IP. The changes in body weight and food intake for the 24 hour period after dosing were determined. The changes in body weight and food intake for the 48 hour and 72 hour periods after dosing were also measured to determined reversal of changes in body weight and food intake effects back to baseline levels.

T4 sequence (P33032 whole entry): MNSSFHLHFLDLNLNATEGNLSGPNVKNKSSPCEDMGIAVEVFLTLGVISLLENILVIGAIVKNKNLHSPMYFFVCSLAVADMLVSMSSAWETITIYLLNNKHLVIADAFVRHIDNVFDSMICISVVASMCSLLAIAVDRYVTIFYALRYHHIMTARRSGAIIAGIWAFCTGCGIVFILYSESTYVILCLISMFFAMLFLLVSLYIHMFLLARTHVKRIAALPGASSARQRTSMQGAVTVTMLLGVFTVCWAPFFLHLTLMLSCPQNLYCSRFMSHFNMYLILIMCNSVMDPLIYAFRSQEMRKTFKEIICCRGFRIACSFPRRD
T3 sequence (P41968 whole entry): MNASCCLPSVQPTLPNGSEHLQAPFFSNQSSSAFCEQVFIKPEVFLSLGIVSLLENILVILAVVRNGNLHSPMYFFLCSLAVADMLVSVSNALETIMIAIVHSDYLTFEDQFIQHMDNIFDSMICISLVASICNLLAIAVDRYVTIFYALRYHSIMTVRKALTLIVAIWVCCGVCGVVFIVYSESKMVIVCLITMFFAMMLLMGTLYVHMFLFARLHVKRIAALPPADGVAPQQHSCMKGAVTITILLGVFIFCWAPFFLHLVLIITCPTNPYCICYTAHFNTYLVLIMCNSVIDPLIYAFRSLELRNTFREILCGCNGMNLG
T2 sequence (Q01727 whole entry): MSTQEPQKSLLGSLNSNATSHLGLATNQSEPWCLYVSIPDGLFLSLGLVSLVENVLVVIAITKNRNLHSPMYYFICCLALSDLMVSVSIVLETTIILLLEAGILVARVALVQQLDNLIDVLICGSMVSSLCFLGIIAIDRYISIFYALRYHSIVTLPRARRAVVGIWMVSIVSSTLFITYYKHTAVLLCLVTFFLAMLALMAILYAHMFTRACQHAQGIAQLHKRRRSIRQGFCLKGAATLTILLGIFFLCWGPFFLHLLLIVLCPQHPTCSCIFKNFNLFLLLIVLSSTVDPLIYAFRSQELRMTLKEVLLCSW
T1 sequence (P32245 whole entry): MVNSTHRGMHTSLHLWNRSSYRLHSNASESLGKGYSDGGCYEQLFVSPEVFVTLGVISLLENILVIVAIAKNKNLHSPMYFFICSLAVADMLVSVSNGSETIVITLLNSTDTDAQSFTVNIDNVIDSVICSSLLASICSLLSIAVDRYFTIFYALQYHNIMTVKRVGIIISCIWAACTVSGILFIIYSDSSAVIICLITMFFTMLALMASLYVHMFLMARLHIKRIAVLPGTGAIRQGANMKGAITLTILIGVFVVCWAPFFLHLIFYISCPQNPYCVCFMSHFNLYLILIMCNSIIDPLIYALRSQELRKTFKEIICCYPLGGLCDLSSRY

With `CC(C)C[C@@H]1CN(C(=O)[C@H](N)Cc2ccc(Cl)cc2Cl)[C@@H](CCCNC(=N)N)CN1CCc1ccc2ccccc2c1` [Example 4, N-{3-[1-[2(R)-Amino-3-(2,4-dichloro-phenyl)-propionyl]-5(R)-isobutyl-4-(2-naphthalen-2-yl-ethyl)-piperazin-2(S)-yl]-propyl}-guanidine] the “Efficacy/Intrinsic Activity” value (MC4-R [1]) was “None”, the inhibition at 1 µM (MC1-R [2]) was 21% and the Ki (MC1-R [2]) was 1360 nM. The inhibition at 1 µM (MC3-R [3]) was 64%, the “functional status at MC1-R in cAMP assay” value (MC1-R [4]) was “no intrinsic activity (intrinsic activity below 0.1 (10%) is classified as inactive or having no intrinsic activity)” and the “functional status at MC5-R in cAMP assay” value (MC5-R [5]) was “partial agonist (intrinsic activity between 0.1 (10%) and 0.7 (70%) is classified as a partial agonist)”. The Kb (MC4-R [6]) was 20 nM, the inhibition at 1 µM (MC4-R [7]) was 99% and the “Efficacy/Intrinsic Activity” value (MC4-R [8]) was “None”. For the same compound, the inhibition in vivo at 10 mg/kg ([9]; 10 mg/kg, read-out: maximal decrease in food intake) was 60%, the “functional status at MC4-R in cAMP assay” value (MC4-R [10]) was “no intrinsic activity (intrinsic activity below 0.1 (10%) is classified as inactive or having no intrinsic activity)” and the inhibition at 1 µM (MC5-R [11]) was 75%.
For `Cc1cc(Cl)ccc1C[C@@H](N)C(=O)N1C[C@@H](C)N(CCc2c[nH]c3ccccc23)C[C@@H]1CCCNC(=N)N` [Example 9, N-(3-{1-(2(R)-Amino-(4-chloro-2-methyl-phenyl)-propionyl)-5(R)-methyl-4-[2-(1H-indol-3-yl)-ethyl]-piperazin-2(S)-yl}-propyl)-guanidine], the EC50 (MC4-R [1]) was 22 nM, the “Efficacy/Intrinsic Activity” value (MC4-R [1]) was 0.73 and the inhibition at 1 µM (MC1-R [2]) was 40%. For the same compound, the Ki (MC1-R [2]) was 1730 nM, the inhibition at 1 µM (MC3-R [3]) was 74% and the “decrease in body weight” value [12] was 2%. The “decrease in food intake” value [12] was 16%, the “functional status at MC1-R in cAMP assay” value (MC1-R [4]) was “no intrinsic activity (intrinsic activity below 0.1 (10%) is classified as inactive or having no intrinsic activity)” and the “functional status at MC3-R in cAMP assay” value (MC3-R [13]) was “no intrinsic activity (intrinsic activity below 0.1 (10%) is classified as inactive or having no intrinsic activity)”. The “functional status at MC5-R in cAMP assay” value (MC5-R [5]) was “no intrinsic activity (intrinsic activity below 0.1 (10%) is classified as inactive or having no intrinsic activity)”, the inhibition at 1 µM (MC4-R [7]) was 98% and the “Penile Erection ICV” value ([14]; ICV) was “No”. The penile erection response ([14]; ICV, 0.01 to 10 nmol) was “no penile erection response”, the “Penile Erection IV” value ([14]; IV) was “No” and the penile erection response ([14]; IV, 0.3 to 30 μg/kg) was “no penile erection response”. The “Efficacy/Intrinsic Activity” value (MC4-R [8]) was “None”, the “maximal decrease in food intake” value ([9]; 3 mg/kg) was 10% and the “intrinsic activity at MC4-R in a normal system” value (MC4-R [10]) was 1. The “functional status at MC4-R in cAMP assay” value (MC4-R [10]) was “full agonist” and the inhibition at 1 µM (MC5-R [11]) was 75%.
For `Cc1cc(Cl)ccc1C[C@@H](N)C(=O)N1C[C@@H](C)N(C(=O)Cc2ccc3ccccc3c2)C[C@@H]1CCCNC(=N)N` [Example 10, N-{3-[1-[2(R)-Amino-3-(4-chloro-2-dimethyl-phenyl)-propionyl]-5(R)-methyl(2-naphthalen-2-yl-acetyl)-piperazin-2(S)-yl]-propyl}-guanidine], the EC50 (MC4-R [1]) was 26 nM, the “Efficacy/Intrinsic Activity” value (MC4-R [1]) was 0.69 and the inhibition at 1 µM (MC1-R [2]) was 3%. The Ki (MC1-R [2]) was 462 nM, the inhibition at 1 µM (MC3-R [3]) was 34% and the “functional status at MC1-R in cAMP assay” value (MC1-R [4]) was “partial agonist (intrinsic activity between 0.1 (10%) and 0.7 (70%) is classified as a partial agonist)”. For the same compound, the “functional status at MC3-R in cAMP assay” value (MC3-R [13]) was “partial agonist (intrinsic activity between 0.1 (10%) and 0.7 (70%) is classified as a partial agonist)”, the “functional status at MC5-R in cAMP assay” value (MC5-R [5]) was “agonist (intrinsic activity of 0.7 (70%) or higher is classified as an agonist)” and the “maximal decrease in food intake” value [15] was 33%. For the same compound, the inhibition at 1 µM (MC4-R [7]) was 96%, the “Penile Erection IV” value ([14]; IV) was “Yes*” and the animals responding ([14]; IV, 0.3 to 30 μg/kg) was “not more than 66%”. The EC50 (MC4-R [8]) was 38 nM, the “Efficacy/Intrinsic Activity” value (MC4-R [8]) was 0.23 and the “maximal decrease in food intake” value ([9]; 10 mg/kg) was 27%. The “intrinsic activity at MC4-R in a normal system” value (MC4-R [10]) was 0.9, the “functional status at MC4-R in cAMP assay” value (MC4-R [10]) was “agonist (intrinsic activity of 0.7 (70%) or higher is classified as an agonist)” and the inhibition at 1 µM (MC5-R [11]) was 36%.
In the case of `N=C(N)NCCC[C@H]1C(=O)N2C(CC[C@@H]2COc2ccc3ccccc3c2)N1C(=O)[C@@H](Cc1ccc(Cl)cc1Cl)NC(=O)[C@@H]1Cc2ccccc2CN1` (stereo partly drawn) [Example 22, (S)-1,2,3,4-Tetrahydro-isoquinoline-3-carboxylic acid {(R)-1-(2,4-dichloro-benzyl)-2-[(2S,5R)-2-(3-guanidino-propyl)-5-(naphthalen-2-yloxymethyl)-3-oxo-hexahydro-pyrrolo[1,2-a]imidazol-1-yl]-2-oxo-ethyl}-amide], the EC50 (MC4-R [1]) is reported as 64 nM, the “Efficacy/Intrinsic Activity” value (MC4-R [1]) is reported as 0.30 and the inhibition at 1 µM (MC1-R [2]) is reported as 75%. The Ki (MC1-R [2]) was 111 nM, the inhibition at 1 µM (MC3-R [3]) was 88% and the “decrease in food intake” value [12] was 22%. The Kb (MC4-R [6]) was 7.94 nM, the inhibition at 1 µM (MC4-R [7]) was 100% and the “Penile Erection IV” value ([14]; IV) was “No”. For the same compound, the penile erection response ([14]; IV) was “no penile erection response”, the “Efficacy/Intrinsic Activity” value (MC4-R [8]) was “None” and the “functional status at MC4-R in cAMP assay” value (MC4-R [10]) was “antagonist”. For the same compound, the inhibition at 1 µM (MC5-R [11]) was 96%.
With “N-{3-[1-[2(R)-Amino-3-(2-methyl, 4-chloro-phenyl)-propionyl]-5(R)-methyl-4-(2-naphthalen-2-yl-ethyl)-piperazin-2(S)-yl]-propyl}-guanidine [Example 26]” the “pA2 value as antagonist at MC4-R in a normal system” value (MC4-R [6]) was 8.3 and the “functional status at MC4-R in cAMP assay” value (MC4-R [10]) was “no intrinsic activity (intrinsic activity below 0.1 (10%) is classified as inactive or having no intrinsic activity)”.
